According to US7196063B1, “Peptides and pharmaceutical compositions comprising same” (NST NeuroSurvival Technologies Ltd., priority 1999, dated 2007):
Entries after “also recorded” stand apart in the source; their conditions may differ. Like-named read-outs stand apart in the source and are kept apart here.

Experiments:
apoptotic hepatocytes = format: in vivo, mice; conditions: mouse, in vivo
Experimental: Massive hepatic apoptosis can be induced within 1–2 hr in mice following intravenous injection of anti-Fas antibody (Ogasawara J. et al., 1993, Nature, 364, 806–809). […] Five-weeks-old male BALB/c mice were injected intravenously with 10 μg/animal of purified hamster anti-Fas mAb (Jo2, PharMingen, San Diego, Calif.) using the model described by Ogasawara et. al. (Nature, 1993, 364, 806–809). […] Injections were performed at different time intervals between 5 min–2 hr after antibody treatment. […] All animals were killed 2 hr after administration of antibody followed by organ removal. Heart, lung and liver were collected. Liver were sectioned transversely across the mid-portion of each lobe; organs were fixed in phosphate-buffered formalin for histological and immunohisto-chemical analyses.
Formalin fixed paraffin-embedded tissues were sectioned (5 μm) for staining with Hematoxylin/Eosin or other techniques. Endogenous peroxidase activity was blocked by incubation with 3% H2O2.
After washing with PBS, staining was developed with 3,3-diaminobenzidine tetrahydrochloride (DAB), and counterstained with Hematoxylin.
Liver sections from different lobes were used for detection of stained apoptotic cells compared to normal cells. Using light microscopy (×400), twenty fields of stained cells were evaluated. A ratio between the number of stained apoptotic hepatocytes versus stained normal hepatocytes in the field was defined. The stained cell's score (%) corresponds to the mean of the values for the twenty evaluated fields.
The percentage of apoptotic cells in the fields was estimated by evaluating parallel sections stained with Hematoxylin/Eosin. Analysis was performed blindly, since the pathologist performing the histological evaluation was unaware of the assignment of mice to the treatment or control group.
To quantitate the microscopic examination of the pharmacokinetics studies, the number of stained cells from 20 microscopic fields was counted.

apoptotic HeLa cells [1] = conditions: 500 nM, FACS
Experimental: Detection of binding to apoptotic HeLa cells was performed according to the following procedure: Cells were plated on tissue culture plates at a density of 5×10^6 cells/10 cm dish, and grown in their normal medium at 37° C. for 18 hr. The medium was replaced with a medium containing 2% FCS and 500 μM of dopamine. Eighteen hours later, floating cells that were identified as advanced apoptotic cells were collected and transferred to a 50 ml tube. To evaluate the level of apoptosis in the cultures, aliquots of 10^5 cells from the cultures were plated on 48 wells plate and stained with Hoechst 33342 dye (Molecular Probes) at a concentration of 1 mg/ml for 20 min (as described above). Non-treated cells served as control. For collecting the non-treated cells, the medium of the culture was aspirated and discarded, the cells were rinsed with growing medium and 2 ml of medium were added to the culture dish. The cells were detached from the culture dish using a cell scraper and separated to single cells by passage through a syringe with a 18G needle.
The reactions were incubated at room temperature for 40 minutes and then 400 μl of TBS was added and cells were collected by centrifugation at 3000×g for 3 minutes. Cells were washed in 1 ml of TBS and centrifuged as before and detecting of the bound compound was performed using 100 μl of TBS containing streptavidin conjugated to fluorescein (FITC) (016-090-084 from Jackson ImmunoResearch lab. Inc.). Incubation was for 15 minutes at room temperature in the dark. Thereafter, 400 μl of TBS was added and cells were centrifuged and washed again with 1 ml of TBS as before, re-suspended in 400 μl of TBS and then taken for FACS analysis. The FACS analysis was performed on Beckton-Dickinson cell sorter, using lysis II software. Excitation was at 488 nm and emission for FITC detection was at 535 nm and for PI detection at 585 nm.

apoptotic HeLa cells [2] = test: Binding to single apoptotic HeLa cells, fluorescent microscopy; format: cell-based
Experimental: Chamber slides were pre-coated with 0.1% gelatin (G-1393 Sigma). Cells were seeded at a density of 8×10^4 cells/chamber, in a volume of 300 μl of culture medium. Apoptosis was induced by treatment with dopamine (RBI, MA, USA). Following 24 hours of incubation, the medium was replaced by a low serum-containing medium (2% FCS), with 500 μM of dopamine, for 18 hours. Non-treated cells that served as control, were kept in the growing medium without dopamine.
For evaluation of apoptosis, cells were stained with 1 mg/ml of Hoechst 33342 dye (Molecular probes). Twenty minutes later, cells were visualized under UV light microscopy and the relative number of apoptotic cells with condensed or fragmented chromatin was then evaluated and compared with non-apoptotic cells, showing a pale and diffuse staining. Photomicrographs were taken for documentation, but are not shown here. For staining with NST500 compounds, the tested cultures were grown as specified above and washed twice with TBS (Tris Buffered Saline; 10 mM Tris PH 8.0; 150 mM NaCl). […]
As a positive control, binding of Annexin V was performed using commercial kit (Genzyme, Mass.). Binding was evaluated with a fluorescent microscope (IX70; Olympus), using an NIBA filter (Narrow Interference Blue A from Olympus) and a ×400 magnification. […]

thrombin = biological target: T1, thrombin (Homo sapiens, UniProt P00734); test: Direct effect on thrombin activity in vitro; format: biochemical; conditions: commercially available thrombin and chromogenic substrate; not shown
T1 construct: purchased

BeWo cells = test: Binding to single trophoblast BeWo cells, fluorescent microscopy; format: cell-based, Human
Experimental: The Human choriocarcinoma cell line BeWo that express low levels of PS on its plasma membrane (Rote N S et al., 1995, American J. of Reproductive Immunology 33, 114–121), was obtained from ECACC, cat # 86082803 and maintained in Ham's F12+ medium (01095-1A, Bet-Haemek, Israel). The medium was supplemented with 2mM of L-Glutamine; 100 units/ml of penicillin; 100 μg/ml of streptomycin, and 10% fetal calf serum (Bet-Haemek). The cells were passaged using 0.05% trypsine/EDTA (03-054-1B, Bet-Haemek,).

Myristate-KVSFFCKNKEKKC-K (SEQ ID NO:1) (biotin) [NST513]
increase in number of stained apoptotic cells as compared to non specific staining of non-apoptotic cells (apoptotic hepatocytes): 3 times
ratio of apoptotic stained cells vs non-apoptotic cells (apoptotic hepatocytes): 5 fold
staining of normal hepatocytes (apoptotic hepatocytes): never observed
staining of apoptotic hepatocytes in anti-Fas treated mice (apoptotic hepatocytes; iv): observed at cytoplasma and cytoplasmatic border of apoptotic hepatocytes
binding to apoptotic versus control HeLa cells (apoptotic HeLa cells [1]): strong labeling of apoptotic versus control cells
increase in the percentage of apoptotic cells labeled, as compared to non-apoptotic cells (apoptotic HeLa cells [1]; PI and FITC): 5.5 fold
binding to apoptotic versus control HeLa cells (apoptotic HeLa cells [1]; listed as NST313): specifically binds to apoptotic cells
labeling of apoptotic HeLa cells (apoptotic HeLa cells [2]): potent detector of apoptotic cells
labeling of control non-treated HeLa cells (apoptotic HeLa cells [2]): did not exhibit significant labeling
direct effect on thrombin activity (thrombin): no direct inhibitory effect on thrombin activity
binding to BeWo cells (BeWo cells): Typical membrane labeling is observed; also recorded: Binding of the compound to the whole population of BeWo cells was demonstrated
